Laboratory results published in patent US7595330B2, “Benzimidazole thiophene compounds” (SmithKline Beecham Corporation, priority 2005, dated 2009).

What was measured:
HCT116 = experiment: Methylene blue growth inhibition assay, HCT116; type: cell-based; conditions: Homo sapiens, HCT-116; methylene blue, 72 h, HCT116; read-out: HCT116 IC50
Method: (§1) II. Methylene Blue Growth Inhibition Assay—Inhibition of Cell Proliferation by PLK1 Inhibitors
(§2) Generally, exponentially growing cell lines of different tumor origins, cultured in appropriate media containing 10% fetal bovine serum at 37° C. in a 5% CO2 incubator were plated at low density (less than 2000 cells/well) in 96-well plates. […]. Seventy two hours post-treatment, cell numbers were determined using 100 μl per well of methylene blue (Sigma M9140) (0.5% in 50:50 Ethanol:water). Stain was incubated at room temperature for 30 minutes before plates were rinsed and dye solubilized in 1% N-lauroyl sarcosine, sodium salt, (Sigma L5125, in PBS) (further details of a methylene blue assay are described below). Plates were read on a microplate reader, measuring the OD at 620 nm.
(§3) . The data are shown in Table 1 below and represent a compilation of several different experiments, each performed using the general parameters outlined above, although minor variations may have been employed in some instances.
(§4) In one assay, normal human foreskin fibroblasts (HFF), human colon (HCT116, RKO), lung (H460, A549) and breast (MCF7) tumor cell lines were cultured in high glucose DMEM (Life Technologies) containing 10% fetal bovine serum (FBS) at 37° C. in a humidified 5% CO2, 95% air incubator. Cells were harvested using trypsin/EDTA, counted using a haemocytometer, and plated in 100 μL of culture media per well, at the following densities, in a 96-well tissue culture plate (Falcon 3075): HFF 5,000 cells/well, HCT116 3,000 cells/well, RKO 2,500 cells/well, H460 2,500 cells/well, A549 5,000 cells/well, MCF7 4,000 cells/well. The next day, compounds were diluted in low glucose DMEM containing 100 μg/mL gentamicin, at twice the final required concentration, from 10 mM stock solutions in DMSO. 100 μL/well of these dilutions were added to the 100 μL of media currently in the assay plates. Medium containing 0.6% DMSO was added to control wells. The final concentration of DMSO in all wells was 0.3%. Cells were incubated at 37° C., 5% CO2 for 72 h. Medium was removed by aspiration. Cell biomass was estimated by staining cells with 80 μL per well methylene blue (Sigma M9140, 0.5% in 50:50 ethanol:water), and incubation at room temperature for 30-60 min. Stain was removed by aspiration and the plates rinsed by immersion in water, then air-dried. To release stain from the cells, 100 μL of solubilization solution was added (1% N-lauroyl sarcosine, Sodium salt, Sigma L5125, in PBS), and plates were shaken gently for about 30 min. Optical density at 620 nm was measured on a microplate reader. Percent inhibition of cell growth was calculated relative to vehicle treated control wells. […].

RKO = experiment: Methylene blue growth inhibition assay, RKO; type: cell-based; conditions: Homo sapiens, methylene blue, 72 h, read-out: RKO IC50
Method: as §1, §2, §3, §4

[1] = High throughput solubility assay; type: physicochemical; conditions: aqueous buffer, pH 7.4, 0.05M phosphate buffer
Method: IV. High Throughput Solubility Assay
Two samples are prepared for each compound. One (the standard sample) contains the compound at a fixed concentration of 20 μM in an aqueous/organic mixed solvent cocktail. The other (the test sample) contains the compound at a maximum concentration of 200 μM in pH 7.4, 0.05M phosphate buffer and shaking for 24 h. The test sample is filtered by 0.45μ filter and then spun for 10 min to remove any undissolved solid. HPLC analyses are preformed on these samples. The peak areas are used for computing solubility.

A549-L = experiment: Cell-Titer-Glo inhibition of cell proliferation, A549-L; type: cell-based; conditions: CellTiter-Glo, 72 h
Method: (§5) V. Cell-Titer-Glo—Inhibition of Cell Proliferation by PLK1 Inhibitors
(§6) Exponentially growing cell lines of different tumor origins, cultured in appropriate media containing 10% fetal bovine serum at 37° C. in a 5% CO2 incubator were plated at low density (less than 2000 cells/well) in 96-well plates. Twenty four hours post-plating, cells were treated with different concentrations of test compounds ranging from 10 uM to 0.04 nM. Several wells were left untreated as a control. Seventy two hours post-treatment, cell numbers were determined using 50-100 ul per well of CellTiter-Glo (Promega #G7573). Plates were incubated at room temperature for 15 minutes and the chemiluminescent signal was read on the Victor V or Envison 2100 reader.
(§7) The Cell-Titer Glo data are shown in Table 2 below and represent a compilation of several different experiments, each performed using the general parameters outlined above, although minor variations may have been employed in some instances.

HT29 = experiment: Cell-Titer-Glo inhibition of cell proliferation, HT29; type: cell-based; conditions: Homo sapiens, HT-29, CellTiter-Glo, 72 h
Method: as §5, §6, §7

HN5 = experiment: Cell-Titer-Glo inhibition of cell proliferation, HN5; type: cell-based; conditions: Homo sapiens, CellTiter-Glo, 72 h
Method: as §5, §6, §7

MV522 = experiment: Cell-Titer-Glo inhibition of cell proliferation, MV522; type: cell-based; conditions: CellTiter-Glo, 72 h
Method: as §5, §6, §7

MDA-MB-468 = experiment: Cell-Titer-Glo inhibition of cell proliferation, MDA-MB-468; type: cell-based; conditions: Homo sapiens, CellTiter-Glo, 72 h
Method: as §5, §6, §7

MiaPaca = experiment: Cell-Titer-Glo inhibition of cell proliferation, MiaPaca; type: cell-based; conditions: Homo sapiens, MIA PaCa-2, CellTiter-Glo, 72 h
Method: as §5, §6, §7

ASPC3 = experiment: Cell-Titer-Glo inhibition of cell proliferation, ASPC3; type: cell-based; conditions: CellTiter-Glo, 72 h
Method: as §5, §6, §7

C[C@@H](Oc1cc(-n2cnc3ccc(CN4CCN(C)CC4)cc32)sc1C(N)=O)c1ccccc1C(F)(F)F [Example 3, 5-{6-[(4-Methylpipiperazin-1-yl)methyl]-1H-benzimidazol-1-yl}-3-{(1R)-1-[2-(trifluoromethyl)phenyl]ethoxy}thiophene-2-carboxamide]
< 100 nM: IC50 (HCT116) | IC50 (RKO)
< 500 nM: IC50 (A549-L) | IC50 (HT29) | IC50 (HN5) | IC50 (MV522) | IC50 (MDA-MB-468) | IC50 (MiaPaca) | IC50 (ASPC3)
> 100 µM: solubility at 24 h [1]
